Literature values, collected in US20250367137A1, “Phloroglucinol Formulations And Methods Of Use” (priority 2022, published 2025).

System: irritable bowel syndrome (IBS) sufferers
Details: placebo-controlled trials

Oc1cc(O)cc(O)c1 [phloroglucinol]
improvement in pain and stool frequency: statistically significant improvement
